This note sets out measurements from publication PMC5834442, “Identifying inhibitors of the Leishmania inositol phosphorylceramide synthase with antiprotozoal activity using a yeast-based assay and ultra-high throughput screening platform” (Scientific Reports, 2018).

In assay [1] the target is T1, LmjFIPCS (Leishmania major, UniProt E9AFX2).
T1 construct: The complete open reading frames of LmjFIPCS and AUR1p was amplified from genomic DNA; made in house
Description: Biochemical LmjFIPCS assay with CHAPS-washed microsomal membranes. Particulars: for IC50: read-out: pIC50 against LmjFIPCS in vitro (converted). Here is the method: Utilizing the availability of an in-house designed and validated biochemical assay for LmjFIPCS[19],[22], following re-synthesis in the free-base form (Aptuit, Verona, Italy) the two benzazepane hits were biochemically analyzed in a dose response assay (8 compound concentrations between 100 μM and 46 nM; Fig. 5). […].
Microsomal material was prepared and CHAPS washed from α ade^−.lys^−.leu^−.Δaur1^−.pESC-LEU_ LmjFIPCS as previously described[19],[22]. Briefly, each compound at the desired concentration was incubated, in at least triplicate, in 96-well plates (Corning) in phosphate buffer (71.4 mM, pH 7.0) with PI (100 µM, final concentration, Avanti Polar Lipids), CHAPS (600 µM, Sigma-Aldrich) and CHAPS-washed microsomal membranes (0.6 U enzyme per reaction) for 15 minutes at 30 °C. NBD-C6-ceramide (5 µM; ThermoFisher) was added, final volume of 40 µl per well, and the plates incubated at 30 °C for a further 25 minutes. […]. Analyses were carried out using GraphPad Prism 7.

In assay [2] the test system is L. donovani (MHOM/SD/62/1S-CL2D, LdBOB) axenic amastigotes. As to the kind of experiment: Leishmania donovani axenic amastigote dose response assay (resazurin). In kind it is cell-based.
Assay [3] deals with intra-macrophage Leishmania donovani amastigotes. As to the kind of experiment: Intramacrophage Leishmania donovani assay (high content imaging). Particulars: for IC50: Leishmania donovani. Type of assay: cell-based.
Assay [4] has as its system L. major (MHOM/IL/81/Friedlin) wild type. As to the kind of experiment: L. major axenic cell assay (alamarBlue), wild type. Type of assay: cell-based. Particulars: Leishmania major; −logIC50 M; 72 hours; read-out: pIC50 against wild type Leishmania major (converted). From the text: (§1) However, whilst compound 1 was antiprotozoal and a potent IPC synthase inhibitor, it was unclear whether the mode of action was on-target. To analyze this further, the in-house availability of a sphingolipid mutant L. major (Δlcb2) was exploited. This line[24] lacks serine palmitoyltransferase activity, and whilst LmjFIPCS is still present it is redundant in the absence of in situ substrate. […] […]. Therefore, it is likely that off-target activity has a role in the antileishmanial activity of this benzazepane.
(§2) From a previously described protocol, L. major (MHOM/IL/81/Friedlin, wild type and ΔLCB2 mutant)[24] were added to 96-well plates (Corning) at 1 × 10^4 ml^−1 in growth media with appropriate concentrations of compounds and controls (vehicle and assay media alone, with the robustness of the platform indicated by Z’ values > 0.5)[29] in 100 µl. […]. Analyses were carried out using GraphPad Prism 7.

Assay [5] deals with L. major Δlcb2 mutant. As to the kind of experiment: L. major axenic cell assay (alamarBlue), sphingolipid mutant Δlcb2. Type of assay: cell-based. Conditions: Leishmania major, 72 h, read-out: pIC50 against L. major Δlcb2 mutant (converted).
Text: as §1, §2

For assay [6], the target named is T2, in cellulo LmjFIPCS (Leishmania major, UniProt E9AFX2).
T2 construct: endogenous in cells; host or cells: L. major (MHOM/IL/81/Friedlin) Δlcb2 mutant
T2 sequence (E9AFX2 whole entry): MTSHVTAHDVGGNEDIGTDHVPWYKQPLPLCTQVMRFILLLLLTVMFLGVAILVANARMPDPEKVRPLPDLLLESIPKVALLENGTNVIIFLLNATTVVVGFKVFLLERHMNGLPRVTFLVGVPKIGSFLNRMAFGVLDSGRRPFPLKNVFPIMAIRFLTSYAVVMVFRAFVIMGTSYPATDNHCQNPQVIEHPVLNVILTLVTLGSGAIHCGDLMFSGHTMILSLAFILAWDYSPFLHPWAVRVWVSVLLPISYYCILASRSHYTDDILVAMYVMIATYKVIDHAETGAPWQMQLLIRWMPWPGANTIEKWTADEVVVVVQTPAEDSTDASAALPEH
As to the kind of experiment: In cellulo IPC synthase assay (BODIPY FL C5-ceramide incorporation into IPC, HPTLC). Type of assay: cell-based. Particulars: L. major ΔLCB2, 10 μM of compound, compared with compound 1. Here is the method:
Figure 7 In cellulo activity against LmjFIPCS. […] L. major ΔLCB2 treated with 10 μM of compound prior to metabolic labelling with BODIPY FL C5-ceramide. Inhibition of the incorporation of label into IPC was measured following HPTLC in comparison with a control (vehicle treated). […]. P = 0.006 in students’ t-test indicating the difference is significant (**≤ 0.01).
The L. major Δlcb2 mutant, maintained in Schneider’s media (Sigma-Aldrich) with 15% sera (ThermoFisher), were washed and 200 µl, at 1 × 10^7 ml^−1, incubated in serum free media for 60 minutes at 26 °C before the addition of 10 µM of the compounds, in at least triplicate, and further incubation for 18 hours. Subsequently, the reaction was initiated by the addition of BODIPY FL C5-ceramide complexed to BSA (1.25 µl of 0.5 mM, ThermoFisher). Following further incubation at 26 °C for 1 hour, the lipids were extracted by phase separation in chloroform:methanol:water (10:10:3, 200 µl) and fractionated on HTPLC plates, as previously. The fluorescence was read at Ex475/Em520 using a Fuji FLA-3000 plate reader and AIDA Image Analyser software (version 3.52).

In assay [7] the test system is HepG2 cells. As to the kind of experiment: Mammalian cell cytotoxicity assay (CellTiter-Glo). In kind it is cell-based, human.
The subject of assay [8] is THP-1 macrophages. As to the kind of experiment: Host cell toxicity in the intramacrophage assay. In kind it is cell-based, human.
Setting [9] is: −logIC50 M, biochemical assay, at least 3 independent experiments.
Setting [10] is: −logIC50 M, 72 hours, read-out: pIC50 against axenic L. donovani amastigotes (converted).
The mark [11] stands for this setting: −logIC50 M, L. donovani infected THP-1 macrophages, 96 hours, read-out: pIC50 against intra-macrophage L. donovani amastigotes (converted).

“Also recorded” adds a separate entry of the source. Where two headings read alike, the source gives them in different places. Where only a bound is given, the exact number is not on record here.

T1 sequence (E9AFX2 whole entry): as above

Consider `O=S(=O)(c1ccc2c(c1)CCN(Cc1cccnc1)CC2)n1cccc1` [compound 6], for which, in assay [1] (setting [9]), the “pIC50 against LmjFIPCS in vitro” value is “lost activity”.

Turning to `O=S(=O)(c1ccc2c(c1)CCN(Cc1ccc(F)cc1)CC2)n1cccc1` [compound 1], the IC50 was 0.0251 µM in assay [2] (setting [10]); 3.16 µM in assay [3] (setting [11]); 0.158 µM in assay [1] (setting [9]); 3.16 µM in assay [4]; 3.16 µM in assay [5].

On to `O=S(=O)(c1ccc2c(c1)CCN(Cc1ccc(F)cc1)CC2)n1ccc2c(F)cccc21` [compound 7], for which, in assay [3] (−logIC50 M, L. donovani infected THP-1 macrophages, 96 hours), the “pIC50 against intra-macrophage L. donovani amastigotes” value is listed as “lost”. In assay [1] (even at higher concentrations), the “maximal inhibition of LmjFIPCS in vitro” value is at most 60%. The IC50 is 0.0631 µM in assay [1] (setting [9]), 3.16 µM in assay [4] and over 10 µM in assay [5]. For the same compound, the “in cellulo inhibition of IPC synthase activity (incorporation of BODIPY FL C5-ceramide into IPC)” value in assay [6] was “considerably greater in cellulo inhibition of IPC synthase activity than compound 1; also recorded: greater activity against in cellulo LmjFIPCS than compound 1”.

Consider `O=S(=O)(c1ccc2c(c1)CCN(Cc1cccnc1)CC2)n1ccc2c(F)cccc21` [compound 2], for which the IC50 in assay [2] (setting [10]) was 0.398 µM; in assay [3] (setting [11]) it was 2 µM; in assay [1] (setting [9]) it was 6.31 µM.

Take `O=C(NC1CCN(Cc2ccc(Cl)s2)CC1)N1CCc2cc(Cl)ccc21` [ST/1291407]: the IC50 is 2.88 µM in assay [2] (-logIC50 mol against L. donovani (LdBOB) axenic amastigotes, read-out: pIC50 Axenic (converted)); 67.6 µM in assay [7] (Homo sapiens, -logIC50 mol against HepG2, read-out: PIC50 HepG2 (converted)); 2.09 µM in assay [3] (intramacrophage L. donovani, read-out: pIC50 InMac (converted)); 6.03 µM in assay [8] (Homo sapiens, THP-1 host cells in intramacrophage assay, read-out: pIC50 THP-1 (converted)). The “pSI v HepG2” value in assay [7] (selectivity: pIC50 axenic minus pIC50 HepG2) is 1.37. For the same compound, the “pSI v THP-1” value in assay [8] (selectivity: pIC50 InMac minus pIC50 THP-1) was 0.46.
